According to US20090312406A1, “COUMARIN COMPOUNDS AND THEIR USE FOR TREATING VIRAL INFECTION” (priority 2008, published 2009):
Where two headings read alike, the source gives them in different places.

Legend:
HIV-1 = assay: Inhibition of HIV-1 replication in peripheral blood mononuclear cells, viral RNA by real-time PCR; conditions: Human immunodeficiency virus 1, PBMC
Protocol: Equal amounts of wild-type and mutant viruses were used to infect 5×10^4 peripheral blood mononuclear cells (PBMC) in 1.5 mL medium containing DMSO or various concentrations of a test compound. A half-milliliter of the culture medium was collected from each culture at days 3, 5, and 7. Viral RNA was extracted from the collected culture supernatants and the viral titers (copies/mL) were determined by real-time PCR. The percentage of inhibition was calculated as [100−(VD/VC)]×100%, where VD and VC refer to the virus titers in the presence and absence of the test compound, respectively.

[1] = test system: Influenza A/WSN/33 (H1N1) virus; assay: In vitro anti-influenza virus assay (neutralization test), cytopathic effect on MDCK cells; format: cell-based
Protocol: (§1) Anti-influenza activities of the coumarin compounds were evaluated by measuring the ability of a test compound to inhibit the cytopathic effect induced by an influenza virus on MDCK cells. The 96-well tissue culture plates were seeded with 200 μL of MDCK cells at a concentration of 1.1×10^5 cells/mL in DMEM with 10% fetal bovine serum (FBS). The plates were incubated for 24-30 h at 37° C. and were used at about 90% confluency. Influenza A/WSN/33 (H1N1) virus (100 TCID50) was added to the cells and incubated at 35° C. for 1 h. After adsorption, the infected cell plates were overlaid with 50 μL of DMEM plus 2% FBS and a test compound with different concentrations. The plate was incubated at 35° C. for 72 h. At the end of incubation, the plates were fixed by the addition of 100 μL of 4% formaldehyde for 1 h at room temperature. After the removal of formaldehyde, the plates were stained with 0.1% crystal violet for 15 min at room temperature. The plates were washed and dried, and the density of the well was measured at 570 nm. The concentration required for a test compound to reduce the virus-induced cytopathic effect (CPE) by 50% relative to the virus control was expressed as IC50.
(§2) Compounds 1 and 95 were also tested on various influenza virus strains. Amantadine or Relenza was also tested for comparison. IC50 is defined as the concentration required for a test compound to reduce the virus-induced cytopathic effect (CPE) by 50% relative to the virus control.

[2] = test system: Influenza A/TW/785/05 (H1N1); assay: Anti-influenza CPE neutralization test on MDCK cells; format: cell-based; conditions: Influenza A virus
Protocol: as §1, §2

[3] = test system: Influenza A/TW/83/05 (H3N2); assay: as above; format: cell-based; conditions: Influenza A virus
Protocol: as §1, §2

[4] = test system: Influenza A/Udorn/72 (H3N2); assay: as above; format: cell-based; conditions: Influenza A virus
Protocol: as §1, §2

Influenza B/TW/70325/05 = assay: as above; format: cell-based; conditions: Influenza B virus, Influenza B/TW/70325/05, CPE
Protocol: as §1, §2

Influenza B/TW/710/05 = assay: as above; format: cell-based; conditions: Influenza B virus, Influenza B/TW/710/05, CPE
Protocol: as §1, §2

Influenza B/TW/99/07 = assay: as above; format: cell-based; conditions: Influenza B virus, Influenza B/TW/99/07, CPE
Protocol: as §1, §2

Enterovirus 71 (4643) = assay: In vitro EV 71 neutralization assay, cytopathic effect on RD cells; format: cell-based; conditions: Enterovirus A
Protocol: (§3) This assay measured the ability of a test compound to inhibit the cytopathic effect induced by a picornavirus (EV71, Coxsackie Virus B3, or human rhinovirus 2) on RD cells. The method used for this assay is described in Chang et al., J Med Chem, 2005, 48(10), 3522-3535. More specifically, 96-well tissue culture plates were seeded with 200 μL of RD cells at a concentration of 3×10^5 cells/mL in DMEM with 10% FBS. The plates were incubated for 24-30 h at 37° C. and were used at about 90% confluency. Virus (100 TCID50) mixed with different concentrations of a test compound was added to the cells and incubated at 37° C. for 1 h. After adsorption, the infected cell plates were overlaid with 50 μL of DMEM plus 5% FBS and 2% DMSO. The plate was wrapped in Parafilm and incubated at 37° C. for 64 h. At the end of incubation, the plates were fixed by the addition of 100 μL of 0.5% glutaraldehyde for 1 h at room temperature. After the removal of glutaraldehyde, the plates were stained with 0.1% crystal violet for 15 min at room temperature. The plates were washed and dried, and the density of the well was measured at 570 nm. The concentration required for a test compound to reduce the virus-induced cytopathic effect (CPE) by 50% relative to the virus control is expressed as IC50.

Coxsackie B virus 3 = assay: In vitro Coxsackie Virus B3 neutralization assay, cytopathic effect on RD cells; format: cell-based; conditions: Coxsackie B virus 3, RD cells, CPE
Protocol: as §3

Human rhinovirus 2 = assay: In vitro human rhinovirus 2 neutralization assay, cytopathic effect on RD cells; format: cell-based; conditions: Rhinovirus A
Protocol: as §3

HSV-1 = assay: In vitro HSV-1 plaque reduction assay in Vero cells (Example 5); format: cell-based; conditions: Human alphaherpesvirus 1; HSV-1, Vero cells, 72 h; read-out: EC50 (concentration reducing 50% of plaque numbers)
Protocol: The method used for this assay is described in Su et al., Antiviral Res., 2008, 79(1), 62-70.
Vero cells were seeded onto a 96-well culture plate at a concentration of 10^4 cells per well one day before infection. Next day, medium was removed and 10 plaque forming unit (pfu) HSV-1 suspension per well were added and incubated at 37° C. with 5% CO2 for 1 h. The infected cell monolayer was then washed with phosphate buffered saline (PBS) and cultured in maintenance medium containing 1 μM of compounds. After 72 h of incubation at 37° C., cell monolayer was fixed with 10% formalin and stained with 1% crystal violet.
Plaque assays were performed with monolayer cultures of Vero cells in 24-well culture plates. For plaque reduction assay, cell monolayer was infected with virus (50 pfu/well) and incubated at 37° C. with 5% CO2 for 1 h. The infected cell monolayer was then washed three times with PBS and overlaid with overlapping solution (maintenance medium containing 1% methylcellulose and various concentrations of indicated compounds). After 72 h of incubation at 37° C., cell monolayer was fixed with 10% formalin and stained with 1% crystal violet. […] The minimal concentration of compounds required to reduce 50% of plaque numbers (EC50) was calculated by regression analysis of the dose-response curves generated from plaque assays.

EBV = assay: In vitro EBV assay, EBV reactivation in NA cells by anti-EBV-EAD immunofluorescence; format: cell-based, Epstein-Barr virus (EBV); conditions: human gammaherpesvirus 4; EBV reactivation by TPA/SB in NA cells, compound added 24 h before; read-out: EC50 (concentration reducing 50% of virus replication numbers)
Protocol: The method used for this assay is described in Chang et al., J Virol, 1999, 73, 8857-8866 and Tsai et al., J Virol Methods, 1991, 33, 47-52.
To suppress EBV reactivation, a test compound was added to the NA cell culture medium at indicated final concentration 24 h prior to 12-o-tetradecanoylphorbol-13-acetate (TPA)/sodium n-butyrate (SB) treatment. After treatment, the cells were fixed and assayed by anti-EBV-EAD immunofluorescence for detection of EBV reactivation. […] NA cells were subjected to treatment with the test compound 24 h prior to the addition of TPA/SB. […] Cells were stained with anti-EBV EAD antibody. […] The minimal concentration of the test compound required to reduce 50% of virus replication numbers (EC50) was calculated from regression analysis of the dose-response curves obtained from anti-EBV-EAD immunofluorescence.

[5] = test system: herpes simplex virus type 1; assay: In vitro assessment of anti-HSV activity, plaque reduction assay in Vero cells (Example 8); format: cell-based; conditions: for SI, selectivity index = CC50/EC50: CC50/EC50, HSV-1; for EC50: Human alphaherpesvirus 1, herpes simplex virus type 1, Vero cells, plaque reduction, 72 h, read-out: EC50 (μM), 50% effective concentration
Protocol: Anti-HSV activities of compounds described herein were evaluated by performing a plaque reduction assay using monolayer cultures of Vero cells in 24-well culture plates. A cell monolayer was infected with herpes simplex virus type 1 (50 pfu/well) and incubated at 37° C. with 5% CO2 for 1 h. The infected cell monolayer was then washed three times with PBS and overlaid with a solution (maintenance medium containing 1% methylcellulose and various concentrations of a test compound). After 72 h of incubation at 37° C., the cell monolayer was fixed with 10% formalin and stained with 1% crystal violet. […] The minimal concentration of a compound required to reduce 50% of plaque numbers (EC50) was calculated by regression analysis of the dose-response curves generated from the plaque assay.

[6] = Cytotoxicity (CC50) of the compounds tested in the anti-HSV assay; format: cell-based; conditions: African green monkey, Vero cells; Table 5; read-out: CC50 (μM), 50% cytotoxicity concentration
[7] = test system: Influenza A/TW/141/04 (H1N1); assay: Anti-influenza CPE neutralization test on MDCK cells; format: cell-based; conditions: Influenza A virus
Protocol: as §1, §2

[8] = test system: Influenza A/TW/3446/04 (H3N2); assay: as above; format: cell-based; conditions: Influenza A virus
Protocol: as §1, §2

[9] = 72 h, read-out: Inhibition (%) Day 3
[10] = 120 h, read-out: Inhibition (%) Day 5
[11] = 168 h, read-out: Inhibition (%) Day 7
[12] = MDCK, CPE, Table 2, read-out: IC50
[13] = MDCK cells, 72 h, lower bound (10 nM), upper in μM, read-out: IC50 (concentration reducing virus-induced cytopathic effect by 50%)

Structure (SMILES)	IC50 [1, 12] [nM]	IC50 (Influenza B/TW/70325/05) [nM]	IC50 (Influenza B/TW/710/05) [nM]	IC50 (Influenza B/TW/99/07) [nM]	IC50 [1, 13] [nM]	inhibition at 0.1 µM (HIV-1; [9]) [%]	inhibition at 0.1 µM (HIV-1; [10]) [%]	inhibition at 0.1 µM (HIV-1; [11]) [%]	SI, selectivity index = CC50/EC50 [5]	EC50 [5] [µM]	CC50 [6] [µM]	other results
Cc1cn([C@H]2C[C@H](N=[N+]=[N-])[C@@H](CO)O2)c(=O)[nH]c1=O [AZT, zidovudine, reference compound]	–	–	–	–	–	–	–	–	–	–	–	inhibition at 0.05 µM (HIV-1; [9]): 6%; inhibition at 0.05 µM (HIV-1; [10]): 71%; inhibition at 0.05 µM (HIV-1; [11]): 88%
NC12CC3CC(CC(C3)C1)C2 [Amantadine]	> 25000	> 25000	> 25000	> 25000	–	–	–	–	–	–	–	IC50 [2]: 382 ± 238 nM; IC50 [3]: > 25000 nM; IC50 [4]: 980 ± 147 nM; IC50 (Enterovirus 71 (4643); RD): > 25000 nM; IC50 (Coxsackie B virus 3): > 25000 nM; IC50 (Human rhinovirus 2; RD): > 25000 nM
Cc1cc(=O)oc2c1ccc1oc(C(=O)c3ccccc3)c(-c3ccccc3)c12 [Compound 1, 8-benzoyl-4-methyl-9-phenyl-furo[2,3-h]chromen-2-one]	119 ± 43	67 ± 2	102 ± 20	89 ± 14	10 to 999	2	82	91	–	–	–	IC50 [2]: 52 ± 1 nM; IC50 [3]: 57 ± 6 nM; IC50 [4]: 347 ± 188 nM; IC50 (Enterovirus 71 (4643); Enterovirus 71 (4643), RD cells, CPE, read-out: IC50): 2 ± 1 nM; IC50 (Coxsackie B virus 3): 5 ± 1 nM; IC50 (Human rhinovirus 2; Human rhinovirus 2, RD cells, CPE, read-out: IC50): 12 ± 1 nM; EC50 (HSV-1): ~500 nM; EC50 (EBV): < 500 nM
Cc1cc(=O)oc2c1ccc1oc(C(=O)c3cccc(O)c3)c(-c3ccccc3)c12 [Compound 33]	–	–	–	–	10 to 999	5	98	99.5	235.972	0.396	93.4	–
Cc1cc(=O)oc2c1ccc1oc(C(=O)c3cccs3)c(-c3ccccc3)c12 [Compound 95]	70 ± 10	90 ± 10	90 ± 10	40 ± 10	10 to 999	42	89	99	>1666.666	0.06	> 100	IC50 [7]: 90 ± 10 nM; IC50 [8]: 150 ± 10 nM
Cc1cc(=O)oc2c1ccc1oc(C(=O)c3ccccc3)c(-c3ccc(F)cc3)c12 [Compound 134]	–	–	–	–	10 to 999	61	91	96	>3095.975	0.0323	> 100	–
Cc1cc(=O)oc2c1ccc1oc(C(=O)c3ccccc3)c(-c3ccc(Br)cc3)c12 [Compound 140]	–	–	–	–	10 to 999	19	65	93	>291.545	0.343	> 100	–
